Measured values taken from US20260130933A1, “PHARMACEUTICAL COMPOSITION FOR PREVENTION OR TREATMENT OF NEPHROPATHY AND/OR DIABETES MELLITUS, COMPRISING ENAVOGLIFLOZIN” (DAEWOONG PHARMACEUTICAL CO., LTD., priority 2022, published 2026).

Experiment: Example 2: phase 3 trial, enavogliflozin 0.3 mg vs dapagliflozin 10 mg once a day for 24 weeks added to metformin in patients with type 2 diabetes (same efficacy, exploratory and safety endpoints)
Type: in vivo, human
Experimental: Subjects who met the inclusion/exclusion criteria were administered a placebo of the clinical trial drug under single-blind (subject blinding) conditions during a 2-week run-in period while continuing to receive metformin. […] The randomized subjects were administered two tablets of the clinical trial drug for each administration group once a day, and then visited the institution at weeks 6, 12, 18, and 24 during the 24-week administration period to conduct efficacy and safety evaluations.
• 1. Change in HbA1c at week 24 after administration of clinical trial drug compared to Visit 2 (randomization)
• 1. Change in HbA1c at each time point of weeks 6, 12, and 18 after administration of clinical trial drug compared to Visit 2 (randomization) • 2. Change in FPG at each time point of weeks 6, 12, 18, and 24 after administration of clinical trial drug compared to Visit 2 (randomization) • 3. Proportion of subjects achieving HbA1c<7% at each time point of weeks 6, 12, 18, and 24 after administration of clinical trial drug • 4. Proportion of subjects achieving HbA1c<6.5% at each time point of weeks 6, 12, 18, and 24 after administration of clinical trial drug • 5. Proportion of subjects achieving therapeutic response (HbA1c change (HbA1c at Visit 2-HbA1c at each evaluation time point)>0.5% or HbA1c<7% at each evaluation time point compared to Visit 2 (randomization)) at each time point of weeks 6, 12, 18 and 24 after administration of clinical trial drug
• 1. Change in fasting c-peptide at each time point of weeks 6, 12, 18, and 24 after administration of clinical trial drug compared to Visit 2 (randomization) • 2. Change in body weight at each time point of weeks 6, 12, 18, and 24 after administration of clinical trial drug compared to Visit 2 (randomization) • 3. Change in fasting lipid concentration (total cholesterol, LDL-C, HDL-C, and triglycerides) at each time point of weeks 6, 12, 18, and 24 after administration of clinical trial drug compared to Visit 2 (randomization) • 4. Changes in systolic or diastolic blood pressure at each time point of weeks 6, 12, 18, and 24 after administration of clinical trial drug compared to Visit 2 (randomization) • 5. Changes in β-cell function and insulin resistance measured by HOMA-β and HOMA-IR at each time point of weeks 6, 12, 18, and 24 after administration of clinical trial drug compared to Visit 2 (randomization) • 6. Changes in renal function-related indicators (UACR, UGCR) measured by UACR at each time point of weeks 6, 12, 18, and 24 after administration of clinical trial drug compared to Visit 2 (randomization) • 7. Changes in obesity-related indicators (adiponectin, leptin) at each time point of weeks 6, 12, 18, and 24 after administration of clinical trial drug compared to Visit 2 (randomization)

[1] = Week 12, mPPS1, enavogliflozin minus dapagliflozin
[2] = Week 12, mPPS2, enavogliflozin minus dapagliflozin
[3] = Week 18, PPS, enavogliflozin minus dapagliflozin

OC[C@H]1O[C@@H](c2cc(Cc3ccc(C4CC4)cc3)c(Cl)c3c2CCO3)[C@H](O)[C@@H](O)[C@@H]1O [Enavogliflozin, (2S,3R,4R,5S,6R)-2-(7-chloro-6 (4-cyclopropylbenzyl)-2,3-dihydrobenzofuran-4-yl)-6-(hydroxymethyl)tetrahydro-2H-pyran-3,4,5-triol]
HDL-C, Mean (SD) (Week 12, mPPS1): 53.08(10.89) mg/dL | HDL-C, Median (Week 12, mPPS1): 52.50 mg/dL | LDL-C change from baseline, ANCOVA LS mean (SE) (Week 12, mPPS1): 1.86(1.68) mg/dL | LDL-C change from baseline, Mean (SD) (Week 12, mPPS1): 0.78(16.26) mg/dL | LDL-C change from baseline, Median (Week 12, mPPS1): 1.00 mg/dL | LDL-C, Mean (SD) (Week 12, mPPS1): 87.58(30.26) mg/dL | LDL-C, Median (Week 12, mPPS1): 79.00 mg/dL | Triglycerides change from baseline, ANCOVA LS mean (SE) (Week 12, mPPS1): −7.53(4.80) mg/dL | Triglycerides change from baseline, Mean (SD) (Week 12, mPPS1): −5.00(57.85) mg/dL | Triglycerides change from baseline, Median (Week 12, mPPS1): 3.00 mg/dL | Triglycerides, Mean (SD) (Week 12, mPPS1): 116.23(59.46) mg/dL | Triglycerides, Median (Week 12, mPPS1): 100.00 mg/dL | HDL-C change from baseline, LS mean difference [1]: 0.06 mg/dL | LDL-C change from baseline, LS mean difference [1]: 1.30 mg/dL | triglycerides change from baseline, LS mean difference [1]: 2.57 mg/dL | Diastolic blood pressure change from baseline, ANCOVA LS mean (SE) (Week 12, mPPS2): −4.19 mmHg | Diastolic blood pressure change from baseline, Mean (SD) (Week 12, mPPS2): −4.33 mmHg | Diastolic blood pressure change from baseline, Median (Week 12, mPPS2): −4.00 mmHg | Diastolic blood pressure, Mean (SD) (Week 12, mPPS2): 72.66 mmHg | Diastolic blood pressure, Median (Week 12, mPPS2): 72.00 mmHg | Systolic blood pressure change from baseline, ANCOVA LS mean (SE) (Week 12, mPPS2): −5.86(1.04) mmHg | Systolic blood pressure change from baseline, Mean (SD) (Week 12, mPPS2): −6.42(9.73) mmHg | Systolic blood pressure change from baseline, Median (Week 12, mPPS2): −6.00 mmHg | Systolic blood pressure, Mean (SD) (Week 12, mPPS2): 123.29(13.73) mmHg | Systolic blood pressure, Median (Week 12, mPPS2): 123.00 mmHg | diastolic blood pressure change from baseline, LS mean difference [2]: 0.16 mmHg | systolic blood pressure change from baseline, LS mean difference [2]: 0.26 mmHg | Adiponectin change from baseline, ANCOVA LS mean (SE) (Week 18, PPS): 1.33 µg/mL | Adiponectin change from baseline, Mean (SD) (Week 18, PPS): 1.26 µg/mL | Adiponectin change from baseline, Median (Week 18, PPS): 1.14 µg/mL | Adiponectin, Mean (SD) (Week 18, PPS): 8.3 µg/mL | Adiponectin, Median (Week 18, PPS): 7.33 µg/mL | HOMA-IR change from baseline, ANCOVA LS mean (SE) (Week 18, PPS): −1.79 | HOMA-IR change from baseline, Mean (SD) (Week 18, PPS): −1.58 | HOMA-IR change from baseline, Median (Week 18, PPS): −0.94 | HOMA-IR, Mean (SD) (Week 18, PPS): 1.86 | HOMA-IR, Median (Week 18, PPS): 1.51 | HOMA-β change from baseline, ANCOVA LS mean (SE) (Week 18, PPS): 10.97 | HOMA-β change from baseline, Mean (SD) (Week 18, PPS): 10.63 | HOMA-β change from baseline, Median (Week 18, PPS): 5.75 | HOMA-β, Mean (SD) (Week 18, PPS): 56.39 | HOMA-β, Median (Week 18, PPS): 40.45 | Leptin change from baseline, ANCOVA LS mean (SE) (Week 18, PPS): -2.49 ng/mL | Leptin change from baseline, Mean (SD) (Week 18, PPS): -2.50 ng/mL | Leptin change from baseline, Median (Week 18, PPS): -1.32 ng/mL | Leptin, Mean (SD) (Week 18, PPS): 9.71 ng/mL | Leptin, Median (Week 18, PPS): 7.22 ng/mL | UACR change from baseline, ANCOVA LS mean (SE) (Week 18, PPS): -23.05 g/kg | UACR change from baseline, Mean (SD) (Week 18, PPS): -17480 mg/kg | UACR change from baseline, Median (Week 18, PPS): -0.70 g/kg | UACR, Mean (SD) (Week 18, PPS): 20320 mg/kg | UACR, Median (Week 18, PPS): 9.80 g/kg | UGCR change from baseline, ANCOVA LS mean (SE) (Week 18, PPS): 60.97 mg/mg | UGCR change from baseline, Mean (SD) (Week 18, PPS): 59.41 mg/mg | UGCR change from baseline, Median (Week 18, PPS): 57.54 mg/mg | UGCR, Mean (SD) (Week 18, PPS): 60.98 mg/mg | UGCR, Median (Week 18, PPS): 58.42 mg/mg | HOMA-IR change from baseline, LS mean difference [3]: −0.32 | HOMA-β change from baseline, LS mean difference [3]: −2.53 | UACR change from baseline, LS mean difference [3]: -10.10 g/kg | UGCR change from baseline, LS mean difference [3]: 18.25 mg/mg | leptin change from baseline, LS mean difference [3]: -1.26 ng/mL | HDL-C change from baseline, ANCOVA LS mean (SE) (Week 18, mPPS1): 2.46(0.66) mg/dL | HDL-C change from baseline, Mean (SD) (Week 18, mPPS1): 1.89(6.20) mg/dL | HDL-C change from baseline, Median (Week 18, mPPS1): 2.50 mg/dL | HDL-C, Mean (SD) (Week 18, mPPS1): 53.49(11.50) mg/dL | HDL-C, Median (Week 18, mPPS1): 52.50 mg/dL | LDL-C change from baseline, ANCOVA LS mean (SE) (Week 18, mPPS1): 1.42(1.86) mg/dL | LDL-C change from baseline, Mean (SD) (Week 18, mPPS1): 0.50(14.20) mg/dL | LDL-C change from baseline, Median (Week 18, mPPS1): -1.00 mg/dL
